# Measured values as given in PubChem BioAssay (NCI).
#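 Five concentrations, 48 hours, 96-well plates. Abbreviation: GI50, concentration required for 50% inhibition of growth. TGI: concentration producing complete growth inhibition.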
# Experiments:
# Experiment in all cases: NCI anticancer screen, dose series, 48 h
# [1] = test system: A549 NSCLC
# [2] = test system: EKVX NSCLC
# [3] = test system: HL-60(TB) leukemia
# [4] = test system: KM12 colon
# [5] = test system: LOX IMVI melanoma
# [6] = test system: MDA-MB-231 breast
# [7] = test system: OVCAR-4 ovarian
# [8] = test system: PC-3 prostate
# [9] = test system: SR leukemia
# [10] = test system: TK-10 renal
Compound,GI50 [1],TGI [1],GI50 [2],TGI [2],TGI [3],GI50 [4],TGI [4],GI50 [5],TGI [5],GI50 [6],TGI [6],GI50 [7],TGI [7],GI50 [8],TGI [8],GI50 [9],TGI [9],GI50 [10],TGI [10],GI50 [3]
CCCCN=C(N)c1ccc(N2CCCN(c3ccc(C(N)=NCCCC)cc3)CC2)cc1,4.07 µM,> 100 µM,10.6 µM,> 100 µM,0.159 µM,5.72 µM,47.8 µM,22.5 µM,> 67.6 µM,27.7 µM,> 100 µM,83.1 µM,> 100 µM,11.5 µM,> 100 µM,1.36 µM,4.44 µM,11.4 µM,> 84.7 µM,
COc1cc(/C=C/C(=O)/C=C/c2cc3ccc(Cl)cc3n(Cc3ccccc3)c2=O)ccc1O,2.05 µM,5.03 µM,2.11 µM,4.67 µM,,1.7 µM,3.59 µM,1.29 µM,2.61 µM,2.93 µM,16.6 µM,2.48 µM,37.8 µM,1.92 µM,5.6 µM,0.457 µM,> 100 µM,2.44 µM,5.5 µM,
O=C(CCl)Nc1cc(Cl)c(Cl)cc1Cl,,4.56 µM,,4.67 µM,7.74 µM,,0.83 µM,,3.03 µM,,2.9 µM,,4.06 µM,,3.29 µM,,> 10 µM,,3.27 µM,
NC(Cc1c[nH]c2ccc(F)cc12)C(=O)O (stereo unspecified),855 µM,> 2500 µM,1000 µM,> 2500 µM,> 2500 µM,760 µM,> 2500 µM,509 µM,1860 µM,600 µM,1670 µM,953 µM,> 2500 µM,780 µM,> 2500 µM,1200 µM,> 2500 µM,> 2500 µM,> 2500 µM,737 µM
O=S(=O)(c1ccccc1)N1CN2CN(C1)CN(S(=O)(=O)c1ccccc1)C2,,> 100 µM,,> 100 µM,> 100 µM,,> 100 µM,,> 100 µM,,> 100 µM,,> 100 µM,,> 100 µM,,> 100 µM,,> 100 µM,
O=c1c2ccccc2nc(-c2ccccc2Cl)n1-c1nnc(C(F)(F)F)s1,3.26 µM,> 100 µM,,,8.51 µM,3.68 µM,14.1 µM,3.37 µM,14.2 µM,2.59 µM,9.38 µM,3.15 µM,> 100 µM,2.76 µM,14.1 µM,3.73 µM,24.6 µM,3.99 µM,24 µM,2.38 µM
COc1c(O)cc2c(c1O)C(=O)C1=C(CCCC1)C2=O,,87.3 µM,,86.6 µM,31.9 µM,,65.5 µM,,33.6 µM,,64.1 µM,,95.6 µM,,84.5 µM,,34.2 µM,,74.7 µM,
COc1cc(/C=C/C(=O)N2CCC=CC2=O)cc(OC)c1OC,8.57 µM,22.8 µM,2.94 µM,14.2 µM,5.28 µM,3.18 µM,12.8 µM,2.09 µM,5.13 µM,3.38 µM,10.8 µM,3.11 µM,17.4 µM,7.36 µM,28.5 µM,1.75 µM,> 100 µM,2.99 µM,6.76 µM,1.91 µM
O=C(Nc1cccc(-n2cc(-c3ccncc3)c(-c3ccc(O)c(Cl)c3)n2)c1)c1cc(C(F)(F)F)cc(C(F)(F)F)c1,2.41 µM,> 50 µM,,,27.4 µM,2.05 µM,12.5 µM,1.86 µM,> 50 µM,0.889 µM,2.17 µM,3.31 µM,> 50 µM,2.17 µM,> 50 µM,1.43 µM,5.68 µM,10.9 µM,> 50 µM,9.4 µM
C[C@@H](NC(=O)c1ncnc(N)c1Cl)c1ncc(C(=O)Nc2cc(C(F)(F)F)c(Cl)cn2)s1,18 µM,64.4 µM,,,29 µM,21.3 µM,> 84.6 µM,3.32 µM,54 µM,5.37 µM,41.5 µM,20.7 µM,73.3 µM,25.3 µM,> 76.6 µM,15.3 µM,64.5 µM,19.6 µM,46.6 µM,3.3 µM
O=C1C=CC(=Nc2cccc3c(N=C4C=CC(=O)O4)cccc23)O1,,> 100 µM,,35.2 µM,,,> 100 µM,,91.2 µM,,> 100 µM,,> 100 µM,,> 100 µM,,48.1 µM,,33.3 µM,
Clc1ccc2ncc(-c3cccc(NC4CNC4)n3)n2c1,4.71 µM,> 100 µM,,,42.2 µM,0.686 µM,> 100 µM,2.47 µM,13.8 µM,6.48 µM,75.1 µM,,,4.55 µM,80.9 µM,1.97 µM,> 100 µM,8.03 µM,93.3 µM,4.54 µM
OCc1ccc(N2CCc3cc(F)ccc3C2)cc1Cl,0.389 µM,14.5 µM,,,29.1 µM,13.2 µM,27.3 µM,9.7 µM,24.5 µM,12.9 µM,26.2 µM,0.0277 µM,0.354 µM,11 µM,27.6 µM,3.29 µM,24 µM,,0.0416 µM,1.64 µM
COc1cccc2nc3ccccc3nc12,,> 100 µM,,> 100 µM,> 100 µM,,> 100 µM,,> 100 µM,,> 100 µM,,,,> 100 µM,,> 100 µM,,> 100 µM,
C[C@H](CS)C(=O)N1c2ccccc2C[C@H]1C(=O)O,,> 100 µM,,> 100 µM,> 100 µM,,> 100 µM,,,,> 100 µM,,> 100 µM,,> 100 µM,,> 100 µM,,> 100 µM,
